The values that follow come from patent publication US4743617A, “Heterocyclyl-2-propyn-1-amines” (Merrell Dow Pharmaceuticals Inc., priority 1987, dated 1988).

For assay [1], the system named is dopamine-beta-hydroxylase (DBH). As to the kind of experiment: time-dependent DBH inhibitory activity in vitro (oxygen uptake, tyramine substrate). The conditions noted are these: Concentration 5 × 10^-5 M, preferably pH 5.0, 37° C. The class given is biochemical. Here is the method:
The DBH inhibitory properties of the compounds of this invention can readily be determined by standard and well-known procedures. […] The test compound is added at the desired concentration, and the system is incubated. At different time internals, aliquots are taken and DBH activity is measured using tyramine as the substrate. The reaction is followed by measuring oxygen uptake using a polarographic electrode and an oxygen monitor by the method of S. May et al., J. Bio. Chem. 256, 2258 (1981).

Assay [2] deals with spontaneously hypertensive rats. As to the kind of experiment: lowering of mean blood pressure in conscious spontaneously hypertensive rats (Table II, DBH inhibitory activity in vivo). The conditions noted are these: 30 mg/kg (ip), unanesthetized spontaneously hypertensive rats. As to the method: The ability of the compounds of this invention to lower blood pressure can be determined in vivo using standard and well-known procedures such as those employed for the continuous recording of arterial blood pressure in conscious animals. For instance, test compounds are administered intraperitoneally (ip) to unanesthetized spontaneously hypertensive rats and the arterial blood pressure is monitored continuously. In tests utilizing the above procedure, the antihypertensive effect of the test compound is readily apparent as indicated by the degree of lowering of mean blood pressure (MBP) noted in Table II.

As to `NCC#Cc1cccs1` [3-(2-thienyl)-2-propyn-1-amine], the “t 1/2: time required for 50% log activity remaining” value in assay [1] is recorded as 9.2 min. Moreover, in assay [2], the Duration is 14 h and the “Max Change MBP +/St. dev.” value is -20+/-8 mm Hg.
